From article PMC6915869, “Immunosuppressive effects of a novel potassium channel toxin Ktx-Sp2 from Scorpiops Pocoki” (Cell & Bioscience, 2019)
Entries after “also recorded” stand apart in the source; their conditions may differ. Bridge positions count the residues as written; N and C are the ends. Peptide text beside a SMILES is read from it.

What was measured:
mKv1.1 = molecular target: T1, mKv1.1 (Mus musculus, UniProt P16388); assay: Whole-cell patch-clamp, exogenous Kv1.1 in HEK293T cells; type: cell-based
T1 construct: expressed in transfected cells; host or cells: HEK293T, vector pIRES2-EGFP (bicistronic, EGFP not fused)
Protocol: (§1) Mouse spinal columns were removed and placed in ice cold HBSS, then laminectomies were performed and bilateral DRG were dissected out. After removal of connective tissues, DRG were transferred to a 1 ml Ca^2+/Mg^2+-free HBSS containing 2 μl saturated NaHCO3, 0.35 mg L-cysteine and 20 U papain (Worthington, Lakewood, NJ, USA), and incubated at 37 °C for 10 min. The suspension of DRG was centrifuged, the supernatant was removed, 1 ml Ca^2+/Mg^2+-free HBSS containing 4 mg collagenase type II and 1.25 mg dispase type II (Worthington) was added and incubated at 37 °C for 10 min. After digestion, neurons were pelleted, suspended in neurobasal medium containing 2% B-27 supplement, 1% L-glutamine, 100 U/ml penicillin plus 100 μg/ml streptomycin, and 50 ng/ml nerve growth factor, plated on a 12 mm coverslip coated with poly-L-lysine (10 μg/ml) and cultured under a humidified atmosphere of 5% CO2/95% air at 37 °C for 18–24 h before use. Jurkat E6-1 T cells (ATCC TIB152) and HEK293T cells (ATCC ACS4500) were maintained in RPMI medium 1640 (Invitrogen, Carlsbad, CA, USA) and Dulbecco’s modified Eagle’s medium (DMEM) (Life Technologies,GrandIsland, NY, USA), supplemented with 10% fetal bovine serum (Life Technologies), 100 units/ml penicillin, 100 μg/ml streptomycin, respectively. Cells were cultured in a humidified incubator at 37 °C with 5% CO2. The cDNAs encoding mKv1.1, mKv1.2, mKv1.3, mNav1.4, mNav1.5 and mNav1.7 were subcloned into the XhoI/BamHI sites of a bicistronic vector, pIRES2-EGFP (Clontech, USA), then transiently transfected into HEK293-T cells using Lipofectamine 2000 (Invitrogen) for electrophysiological experiments.
Whole-cell patch-clamp recordings were performed using an EPC 9 amplifier (HEKA Elektronik, Lambrecht/Pfalz, Germany) at room temperature (22–24 °C). Pipettes pulled from borosilicate glass (BF 150-86-10; Sutter Instrument Company, Novato, CA, USA) had resistances of 2–4 MΩ when filled with the internal solution. […]

mNav1.5 = assay: Whole-cell patch-clamp, exogenous Nav1.5 in HEK293T cells; type: cell-based; settings: 1 μM, +10 mV 100 ms pulse from -60 mV every 10 s
Protocol: as §1, with “The cDNAs encoding mKv1.1, mKv1.2, mKv1.3, mNav1.4, mNav1.5 and mNav1.7 were subcloned into the XhoI/BamHI sites of a bicistronic vector, pIRES2-EGFP (Clontech, USA), then transiently transfected into HEK293-T cells using Lipofectamine 2000 (Invitrogen) for electrophysiological experiments.” left out

[1] = system: IL-2 secretion from Jurkat T cells; assay: IL-2 secretion from ConA-activated Jurkat T cells (ELISA); type: cell-based, human; settings: ConA 10 μg/ml; for ConA-induced IL-2 secretion (in words): Ktx-Sp2 10 nM, 100 nM, 1 μM and 10 μM, 24 h, ELISA at 450 nm, n = 6, ***P < 0.0001
Protocol: IL-2 secretion from Jurkat T cells was measured using an ELISA kit (eBioscience, San Diego, CA, USA) following manufacturer’s instructions. Cells were centrifuged at 1500 rpm for 10 min, and the supernatants were collected to measure IL-2 concentrations. Reactions were performed in 96-well plates coated with the capture antibody and stopped with phosphoric acid (1 M). Absorbance was measured at 450 nm. Each experiment was repeated at least three times in duplicate.
The cytokine IL-2 is predominantly secreted from activated T cells and is critical in regulating the balance between immune tolerance and autoimmunity. The secretion of IL-2 is driven by a rise of [Ca^2+]i. Since Ktx-Sp2 potently suppresses Kv1.3 function and decreases Ca^2+ influx in Jurkat T cells we next asked whether Ktx-Sp2 could inhibit IL-2 secretion, which should result in functional immunosuppression. As a classical polyclonal stimulator acting through T-cell receptor complex (TCR)-CD3 complex, ConA has been used to induce T cell activation and stimulate IL-2 secretion, which is dependent on an increase of [Ca^2+]i. We thus used the ConA-stimulated IL-2 secretion in the growth media as readout.
Fig. 6 Ktx-Sp2 inhibits IL-2 secretion from activated Jurkat T cells. The concentrations of IL-2 in cell growth media were measured by ELISA. Jurkat T cells were activated by ConA (10 μg/ml) for 24 h. Ktx-Sp2 (10 nM, 100 nM, 1 μM and 10 μM) were added simultaneously with ConA. ***P < 0.0001, n = 6

[2] = system: endogenous sodium channels expressed by DRG neurons; assay: Whole-cell patch-clamp, endogenous sodium channels of DRG neurons; type: cell-based, mouse; settings: 1 μM; +10 mV 100 ms pulse from -60 mV every 10 s
Protocol: as §1, with “The cDNAs encoding mKv1.1, mKv1.2, mKv1.3, mNav1.4, mNav1.5 and mNav1.7 were subcloned into the XhoI/BamHI sites of a bicistronic vector, pIRES2-EGFP (Clontech, USA), then transiently transfected into HEK293-T cells using Lipofectamine 2000 (Invitrogen) for electrophysiological experiments.” left out

mKv1.2 = molecular target: T2, mKv1.2 (Mus musculus, UniProt P63141); assay: Whole-cell patch-clamp, exogenous Kv1.2 in HEK293T cells; type: cell-based
T2 construct: expressed in transfected cells; host or cells: HEK293T, vector pIRES2-EGFP (bicistronic, EGFP not fused)
Protocol: as §1
Whole-cell patch-clamp recordings were performed using an EPC 9 amplifier (HEKA Elektronik, Lambrecht/Pfalz, Germany) at room temperature (22–24 °C). Pipettes pulled from borosilicate glass (BF 150-86-10; Sutter Instrument Company, Novato, CA, USA) had resistances of 2–4 MΩ when filled with the internal solution. The internal pipette solution for recording Kv currents contained: KCl 140 mM, MgCl2 1 mM, EGTA 1 mM, Na2ATP 3 mM, HEPES 10 mM (pH 7.3 with KOH); for recording Na currents contained: CsCl 100 mM, CsF 40 mM, MgCl2 2 mM, HEPES 10 mM, EGTA 10 mM, D-Glucose 10 mM, Na2ATP 3 mM (pH 7.3 with CsOH). The external solution for recording Kv currents contained: KCl 5 mM, NaCl 140 mM, HEPES 10 mM, CaCl2 2 mM, MgCl2 1 mM, D-Glucose 10 mM (pH 7.4 with NaOH); for recording Na currents contained: NaCl 132 mM, KCl 5.4 mM, CaCl2 1.8 mM, MgCl2 0.8 mM, HEPES 10 mM, D-Glucose 5 mM (pH 7.4 with NaOH). Kv currents were elicited by + 50 mV, 400 ms depolarizing pulse from the holding potential of − 60 mV every 20 s, and Na currents were elicited by + 10 mV, 100 ms depolarizing pulse from the holding potential of − 60 mV every 10 s. […]

T2 sequence (P63141 whole entry, the tested form may be a part): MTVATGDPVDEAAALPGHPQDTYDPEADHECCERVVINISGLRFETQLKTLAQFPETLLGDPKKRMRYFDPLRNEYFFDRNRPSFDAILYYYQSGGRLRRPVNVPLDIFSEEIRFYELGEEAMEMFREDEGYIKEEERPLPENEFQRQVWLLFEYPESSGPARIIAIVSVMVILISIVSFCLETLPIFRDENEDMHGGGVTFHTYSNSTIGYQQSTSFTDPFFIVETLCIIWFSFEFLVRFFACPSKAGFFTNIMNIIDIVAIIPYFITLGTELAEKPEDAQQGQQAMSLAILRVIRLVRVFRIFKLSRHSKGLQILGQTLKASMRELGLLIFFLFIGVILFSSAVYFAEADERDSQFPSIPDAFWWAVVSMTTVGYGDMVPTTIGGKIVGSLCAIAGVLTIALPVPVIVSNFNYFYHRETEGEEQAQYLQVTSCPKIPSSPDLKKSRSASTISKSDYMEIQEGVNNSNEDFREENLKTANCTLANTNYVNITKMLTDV
T1 sequence (P16388 whole entry, the tested form may be a part): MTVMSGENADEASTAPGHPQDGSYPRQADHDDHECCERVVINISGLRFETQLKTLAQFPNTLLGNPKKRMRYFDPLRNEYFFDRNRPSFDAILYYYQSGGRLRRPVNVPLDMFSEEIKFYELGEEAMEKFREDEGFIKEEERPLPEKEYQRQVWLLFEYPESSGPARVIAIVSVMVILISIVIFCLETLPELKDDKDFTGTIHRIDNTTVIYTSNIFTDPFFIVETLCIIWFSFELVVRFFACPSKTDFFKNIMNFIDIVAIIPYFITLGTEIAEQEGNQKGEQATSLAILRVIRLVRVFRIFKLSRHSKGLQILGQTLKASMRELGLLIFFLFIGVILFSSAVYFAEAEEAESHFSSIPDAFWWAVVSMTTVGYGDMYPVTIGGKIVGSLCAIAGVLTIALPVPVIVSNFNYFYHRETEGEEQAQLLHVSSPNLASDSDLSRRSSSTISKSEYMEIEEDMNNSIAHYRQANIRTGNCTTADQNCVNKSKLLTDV

## CSCC[C@@H]1NC(=O)[C@@H]2CSSC[C@H](NC(=O)[C@H](CCCCN)NC(=O)[C@H](C)NC(=O)CNC(=O)[C@H](Cc3c[nH]cn3)NC(=O)[C@H](CC(C)C)NC(=O)[C@@H]3CCCN3C(=O)[C@@H](N)CO)C(=O)N[C@@H](CO)C(=O)N[C@@H](CO)C(=O)N[C@@H](CO)C(=O)N[C@@H](CC(N)=O)C(=O)N[C@@H](CCC(N)=O)C(=O)N[C@H]3CSSC[C@H](NC(=O)[C@H](CCCNC(=N)N)NC(=O)CNC(=O)[C@H](CC(N)=O)NC1=O)C(=O)N[C@@H](CCCNC(=N)N)C(=O)N[C@H](C(=O)N[C@@H](Cc1ccc(O)cc1)C(=O)NCC(=O)O)CSSC[C@H](NC(=O)[C@@H]1CCCN1C(=O)[C@H](CCCNC(=N)N)NC(=O)[C@H]([C@@H](C)O)NC3=O)C(=O)N[C@@H](CCCNC(=N)N)C(=O)N[C@@H](Cc1ccc(O)cc1)C(=O)NCC(=O)NCC(=O)NCC(=O)N[C@@H]([C@@H](C)O)C(=O)N[C@@H](Cc1c[nH]cn1)C(=O)NCC(=O)N[C@@H](CCCCN)C(=O)N2 [Ktx-Sp2] (H-SPLHGAKCSSSNQCTRPCRYGGGTHGKCMNGRCRCYG-OH; disulfide 8-28, 14-33, 18-35 (inferred); N-terminus and C-terminus assumed)
mKv1.1; Discussion section
  blocking activity on Kv1.3 relative to Kv1.1 (Discussion): 33 times
mKv1.1; exogenous channel
  blocking of Kv1.1 (in words): effectively block
mNav1.5
  effect on Nav1.5: almost had no effect
[1]
  activation of Jurkat T cells (in words): inhibit the activation of Jurkat T cells
  ConA-induced IL-2 secretion (in words): reduce the release of inflammatory cytokines IL-2; also recorded: significantly reduced ConA-induced IL-2 secretion in a concentration-dependent manner
[1]; listed as Ktx-sp2
  activation of Jurkat T cells (in words): inhibiting the activation effect of ConA on Jurkat T cells
  ConA-induced IL-2 secretion (in words): significantly reducing the release of inflammatory cytokine IL-2
[2]
  effect on endogenous sodium channels of DRG neurons: almost had no effect
mKv1.2; +50 mV 400 ms pulse from -60 mV every 20 s, room temperature (22–24 °C), mean ± SEM
  IC50: 56.9 ± 2.32 nM
mKv1.2; Discussion section
  blocking activity on Kv1.3 relative to Kv1.2 (Discussion): 4 times
mKv1.2; electrophysiology
  blocking activity on Kv1.2 channel (rounded, Discussion): about 57 nM
mKv1.2; exogenous channel
  blocking of Kv1.2 (in words): effectively block; also recorded: high blocking activity
